In US9468640B2, “Piperidin-4-yl-pyridazin-3-ylamine derivatives as fast dissociating dopamine 2 receptor antagonists” (Janssen Pharmaceutica N.V., priority 2005, dated 2016):

target: T1, human Dopamine D2L receptor (Homo sapiens, UniProt P14416); experiment: In vitro binding affinity for human D2L receptor ([3H]spiperone competition); conditions: membranes of human D2L receptor-transfected CHO cells, 30 min, 37° C.
T1 construct: expressed in transfected cells; host or cells: CHO cells
Description: Frozen membranes of human Dopamine D2L receptor-transfected CHO cells were thawed, briefly homogenised using an Ultra-Turrax T25 homogeniser and diluted in Tris-HCl assay buffer containing NaCl, CaCl2, MgCl2, KCl (50, 120, 2, 1, and 5 mM respectively, adjusted to pH 7.7 with HCl) to an appropriate protein concentration optimised for specific and non-specific binding. Radioligand [^3H]Spiperone (NEN, specific activity ˜70 Ci/mmol) was diluted in assay buffer at a concentration of 2 nmol/L. Prepared radioligand (50 μl), along with 50 μl of either the 10% DMSO control, Butaclamol (10^−6 mol/l final concentration), or compound of interest, was then incubated (30 min, 37° C.) with 400 μl of the prepared membrane solution. Membrane-bound activity was filtered through a Packard Filtermate harvester onto GF/B Unifilterplates and washed with ice-cold Tris-HCl buffer (50 mM; pH 7.7; 6×0.5 ml). Filters were allowed to dry before adding scintillation fluid and counting in a Topcount scintillation counter. Percentage specific bound and competition binding curves were calculated using S-Plus software (Insightful).

T1 sequence (P14416 whole entry): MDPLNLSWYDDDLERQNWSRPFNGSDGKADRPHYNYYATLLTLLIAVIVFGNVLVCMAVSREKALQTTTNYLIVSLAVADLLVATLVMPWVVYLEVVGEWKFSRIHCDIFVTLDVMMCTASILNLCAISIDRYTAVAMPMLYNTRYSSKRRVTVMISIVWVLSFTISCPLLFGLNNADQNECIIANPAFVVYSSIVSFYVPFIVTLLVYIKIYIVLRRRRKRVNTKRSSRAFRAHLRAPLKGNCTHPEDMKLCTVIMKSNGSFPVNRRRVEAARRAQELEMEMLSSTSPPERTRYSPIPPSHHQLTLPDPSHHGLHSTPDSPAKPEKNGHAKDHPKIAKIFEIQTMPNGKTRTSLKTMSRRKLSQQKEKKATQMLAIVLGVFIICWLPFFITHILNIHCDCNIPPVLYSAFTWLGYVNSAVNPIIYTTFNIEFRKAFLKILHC

SMILES	IC50 [µM]
CC(c1ccc(F)c(F)c1)N1CCC(Nc2ccc(C(F)(F)F)nn2)CC1 (racemic) [Example E45, (R,S)—N-[1-(3,4-difluoro-α-methylbenzyl)piperidin-4-yl]-6-(trifluoromethyl)pyridazin-3-amine]	< 6.31
Fc1ccccc1CN1CCC(Nc2ccc(C(F)(F)F)nn2)CC1 [Example E8, N-[1-(2-fluorobenzyl)piperidin-4-yl]-6-(trifluoromethyl)pyridazin-3-amine]	< 6.31
CN(c1ccc(Cl)nn1)C1CCN(Cc2cccc(C(F)(F)F)c2)CC1 [Example E25, N-[1-(3-trifluoromethylbenzyl)piperidin-4-yl]-N-methyl-6-chloropyridazin-3-amine]	< 6.31
COc1ccc(CN2CCC(Nc3ccc(C(F)(F)F)nn3)CC2)cc1F [Example E41, N-[1-(3-fluoro-4-methoxybenzyl)piperidin-4-yl]-6-(trifluoromethyl)pyridazin-3-amine]	< 6.31
Fc1ccc(CN2CCC(Nc3ccc(C(F)(F)F)nn3)CC2)c(F)c1 [Example E42, N-[1-(2,4-difluorobenzyl)piperidin-4-yl]-6-(trifluoromethyl)pyridazin-3-amine]	< 6.31
CC(c1ccc(F)cc1)N1CCC(Nc2ccc(C(F)(F)F)nn2)CC1 (stereo not drawn) [Example E44, N-[1-(4-fluoro-α-methylbenzyl)piperidin-4-yl]-6-(trifluoromethyl)pyridazin-3-amine]	< 6.31

test system: not given; experiment: not given; conditions: not given

SMILES	melting point [°C]
Fc1ccc(CN2CCC(Nc3ccc(C(F)(F)F)nn3)CC2)cc1 [Example E2, N-[1-(4-fluorobenzyl)piperidin-4-yl]-6-(trifluoromethyl)pyridazin-3-amine]	163.3 to 165.3
